In assay [1] the test system is paternal Ube3a-YFP allele in spinal neurons. Briefly: Intrathecal delivery, paternal Ube3a-YFP in spinal cord. Type of assay: in vivo, mouse. Particulars: for unsilencing of paternal Ube3a-YFP after intrathecal injection: i.t. 5 μl, irinotecan 1000 nmol/day for 5 days, topotecan 200 nmol/day for 6 days. The method, then:
A soft cloth is placed over the head and upper body of the animal to keep him calm. The experimenter grasps the pelvic girdle of mouse with his thumb and forefinger. Next, the experimenter traces the spinal column of the mouse with a needle. The disposable 30 gauge ½ inch needle is connected to a 50 ul Luer-hub Hamilton syringe. As long as the experimenter senses the bones of the spinal column, the angle of syringe is lowered at 45 degree to the horizontal. The experimenter inserts the needle 1 mm further to the spinal column. Following the 5 ul injection, the syringe is rotated slightly and removed. […] They are 100, 500 and 1000 nmole. Paternal Ube3a-YFP (+/Ey) mice are used throughout these experiments.
For immunocytochemistry in spinal cord, lumbosacral spinal cord (approximately L1 to S2 and inclusive of the area corresponding to intrathecal injection site) was removed from each mouse and immersion-fixed for 8 h in cold 4% paraformaldehyde/0.1M phosphate buffer (pH 7.4). After a period of cryoprotection in 30% sucrose in 0.1M phosphate buffer, each spinal cord was sectioned on a cryostat at 40 μm. Sections to be stained immediately were collected in PBS; sections to be saved for future study were placed in a PBS/ethylene glycol/glycerol solution and stored at −20° C. Every fourth section was incubated overnight in a mixture containing a chicken IgY to GFP (1:750; Ayes Labs, GFP-1020) and a mouse IgG1 to NeuN (1:250; Millipore, MAB377) and treated the following day with a cocktail containing goat anti-chicken IgY-Alexa 488 (1:200; Invitrogen, A-11039), goat anti-mouse IgG1-Alexa 568 (1:200; Invitrogen, A-21124), and DRAQ5 (1:10,000; Axxora, BOS-889-001). Immunostained sections were mounted from PBS onto SuperFrostPlus Slides (Fisher), which were then air-dried briefly, rehydrated with PBS, and coverslipped with FluoroGel (Electron Microscopy Sciences). For quantification studies, sections were imaged using a Nikon Eclipse 80i with Surveyor mosaic imaging software. For qualitative assessment, sections were imaged as maximal projections on a Zeiss LSM 510.
For cell counting in spinal cord, 14 to 18 sections per mouse in segments corresponding to the injection site were analyzed. Slices were imaged using a Nikon Eclipse 80i microscope equipped with a QimagingRetigaExi high-speed CCD camera system and Surveyor mosaic imaging software using a 10× objective. For qualitative purposes, selected sections were also imaged on a Zeiss LSM 510 confocal microscope. Cells were counted manually by individuals blind to the experimental groups from raw (unprocessed) images using ImageJ and Cellprofiler^35 software.
YFP intensity levels from confocal XYZ image stacks were measured using a semi-automated macro with ImageJ. Individual YFP-positive cells were selected by eye, the criteria being the Z plane having the largest area for each cell. Cell regions were defined by intensity thresholding or manual tracing and the average YFP intensity and percent saturation were calculated for each cell.
Following the injection, the syringe is rotated slightly and removed.

The subject of assay [2] is paternal Ube3a allele in brain. Kind of assay: Intracerebroventricular delivery, paternal Ube3a in brain. Type of assay: in vivo, mouse. The method, then:
In order to unsilence paternal Ube3a in vivo with an emphasis on brain, I.C.V. with osmotic minipump was performed. […] Paternal Ube3a-YFP mice were anesthetized with Ketamine/Xylazine (120 mg/kg; 9 mg/kg) and positioned in a stereotaxic head frame. The scalp is shaved and cut, and the skull exposed. The local anesthetic (Bupivacaine, 2.5 mg/ml) is applied on the top of skull and mineral oil is applied on the eyes of the mice. Acetone is applied on the skull to remove any lipid tissues on the skull as well as to dry the skull surface for optimal adhesion. Next, a cannula (Brain Infusion Kit 1, DURECT Corporation) is positioned into a lateral ventricle at the following coordinates (−0.3 mm A/P, +/−1.0 mm M/L, −3.0 mm D/V). The free end of the cannula is connected to an Alzet osmotic minipump via a 2.5-cm-long piece of polyethylene (PE) tubing (cat. no. 0007750, DURECT Corporation). […] The filled pumps are incubated in sterile saline at 37° C. for at least 4 to 6 hours for priming before being implanted under the dorsal skin of the mouse's back. A needle driver is used to create a subcutaneous pocket in the scapula region to accommodate filled pumps. The cannula base and the attached piece of PE tubing are fixed to the skull with loctite cyanoacrylic. The incision site is closed with prolene suture. During and after surgery, mice are placed on a heating pad. Body weight of mice is recorded daily to assess mouse health. Seven days following minipump implantation, mice are sacrificed following pentobarbital overdose (150 mg/kg, I.P.) and brains are removed for immunofluorescence staining or Western blot analysis.
For immunocytochemistry in brain tissues, mice were perfused with 4% PFA in 0.1M PBS, postfixed overnight, and cryoprotected with 20% sucrose in 0.1M phosphate buffer (PB), pH=7.4 for two days. 60 μm sections were collected and permeabilized with 0.3% Triton X-100 in 0.1M PB for 30 min, and blocked by 5% goat serum for 1 hr. Sections were incubated with rabbit polyclonal antibody to GFP (1:1000, Novus Biologicals, NB600-308) at 4° C. overnight and then incubated with Alexa Fluor 488 goat antibody to rabbit IgG and DAPI for 2 hr at room temperature. Images were acquired using a Zeiss LSM 510 and 710 confocal microscopes.
For optical intensity measurement in selected brain regions, sections were imaged using a Zeiss LSM 510 confocal microscope. With custom macros created using ImageJ software^34, optical intensity of UBE3A-YFP was measured in different regions of hippocampus and striatum from vehicle- and topotecan-treated mice. Image intensity levels were normalized to background intensities from appropriate regions in vehicle-treated mice. Brain sections between Bregma −1.22 mm and −2.06 mm were chosen for analysis (n=5 sections/mouse for hippocampus and n=3 to 5 sections/mouse for striatum).
Mice with paternal Ube3a-YFP (Ube3a^m+/pYFP) were anesthetized with ketamine/xylazine (120 mg/kg; 9 mg/kg) and positioned in a stereotaxic apparatus. The scalp was shaved and cut, and the skull exposed. The local anesthetic (bupivacaine, 2.5 mg/ml) was applied to the skull, and mineral oil was applied to protect the eyes of the mice. Acetone was applied on the skull to remove any lipid tissues on the skull as well as to dry the skull surface for optimal adhesion. Next, a cannula (Brain Infusion Kit 1, DURECT Corporation) was positioned into a lateral ventricle at the following coordinates (−0.3 mm A/P, +1.0 mm M/L, −2.5 mm DN), as described^40. The free end of the cannula was connected to a mini-osmotic pump (Alzet, Model 2001 or 2002) via a 2.5 cm piece of polyethylene (PE) tubing (DURECT Corporation). […] The filled pumps were incubated in sterile saline at 37° C. for at least 4 hr before being implanted under the dorsal skin of the mouse's back. The cannula base and the attached piece of PE tubing were fixed to the skull with Loctite cyanoacrylic 454. The incision site was closed with prolene suture. […]

2 compounds from patent publication US10301630B2, “Methods and compositions for unsilencing imprinted genes” (The University of North Carolina at Chapel Hill, priority 2010, dated 2019) can be followed below.

Where “and” joins values, the source holds several entries; their conditions need not be identical. Equal values may be shown once.

In the case of `CCc1c2c(nc3ccc(OC(=O)N4CCC(N5CCCCC5)CC4)cc13)-c1cc3c(c(=O)n1C2)COC(=O)[C@]3(O)CC` [Irinotecan], in assay [1], the “unsilencing of paternal Ube3a-YFP after intrathecal injection” value is “unsilenced the paternal Ube3a-YFP allele in spinal neurons and in DRG neurons”. In addition, the “Ube3a levels in Angelman syndrome model mice” value in assay [2] (i.c.v.) is “significantly increased Ube3a levels”.

On to `CC[C@@]1(O)C(=O)OCc2c1cc1n(c2=O)Cc2cc3c(CN(C)C)c(O)ccc3nc2-1` [Topotecan], for which the “number of paternal UBE3A-YFP-positive cells in lumbar spinal cord” value in assay [1] (50 nmol/5 μL i.t. once daily, 10 of 14 days) is “significantly increased the number of paternal UBE3A-YFP-positive cells”. Moreover, the “expression level of unsilenced paternal UBE3A-YFP versus maternal controls” value in assay [1] (i.t. 50 nmol/day for 10 of 14 days) is given as “expressed at levels comparable to maternal UBE3A-YFP controls”. The “percentage of UBE3A-YFP+ cells that were NeuN+” value in assay [1] (i.t. 50 nmol/day for 10 of 14 days, paternal Ube3a-YFP mice) was > 93% and 93.25%. Besides, the “time unsilencing of Ube3a-YFP was maintained after cessation of treatment” value in assay [1] (i.t. 50 nmol/day for 10 of 14 days, spinal neurons) is “at least 12 weeks”. Also, in assay [1] (i.t. 100 nmol/day on 10 of 14 days, 14 days washout), the “persistence of unsilencing 14 days after cessation” value is reported as “unsilencing of paternal Ube3a persists”. The “unsilencing of paternal Ube3a-YFP after intrathecal injection” value in assay [1] was “unsilenced the paternal Ube3a-YFP allele in spinal neurons and in DRG neurons”. Moreover, in assay [1] (i.t., FIG. 8 Panels B and C), the “effectiveness at unsilencing in spinal cord compared with irinotecan” value is on record as “even more effective at unsilencing paternal Ube3a in spinal cord”. Besides, in assay [2] (i.c.v. 3.74 μg/h for two weeks), the “mice with robust unsilencing in cerebral cortex near the infused ventricle” value is on record as “two of five mice”; the “unsilencing of paternal Ube3a, cerebellum” value is reported as “no effect in the cerebellum”; the “unsilencing of paternal Ube3a, contralateral (non-infused) hemisphere” value is listed as “only a modest effect”. In addition, the “unsilencing of paternal Ube3a, infused hemisphere” value in assay [2] (i.c.v. 3.74 μg/h for two weeks, mini-osmotic pump) was “unsilenced paternal Ube3a in the hippocampus, striatum, and cerebral cortex of the infused hemisphere”. Moreover, the “unsilencing of paternal Ube3a, cerebellar Purkinje neurons” value in assay [2] (i.c.v. 21.6 μg/h for five days) is “did unsilence the paternal allele of Ube3a in Purkinje neurons of the cerebellum”. Further, in assay [2] (i.c.v. osmotic minipump, one week), the “paternal Ube3a-YFP protein in brain after ICV infusion (Example 3)” value is “increased paternal Ube3a-YFP protein levels throughout the brain”.
